Source: patent publication US7476664B2, “Bis-2-difluoro-pyrrolo[2,1-C][1,4]benzodiazepine dimers” (priority 2007, dated 2009)

Tested on: calf thymus (CT) DNA
Type: binding
Conditions: for ΔTm (° C.) after incubation at 37° C. for 0 h / ΔTm (° C.) after incubation at 37° C. for 18 h / ΔTm (° C.) after incubation at 37° C. for 36 h: [PBD]:[DNA] molar ratio 1:5, CT-DNA 100 μM, ligand 20 μM, 10 mM sodium phosphate + 1 mM EDTA, pH 7.00; for ΔTm (° C.) after incubation at 37° C. for 0 h: 0 h incubation at 37° C.; for ΔTm (° C.) after incubation at 37° C. for 18 h: 18 h incubation at 37° C.; for ΔTm (° C.) after incubation at 37° C. for 36 h: 36 h incubation at 37° C.
Procedure: The DNA binding affinity of the novel C2 di-fluoro PBD dimers (VIIa-c) was investigated by thermal denaturation studies using calf thymus (CT) DNA (Jones, G. B.; Davey, C. L.; Jenkins, T. C.; Kamal, A.; Kneale, G. G.; Neidle, S.; Webster, G. D.; Thurston, D. E. Anti-Cancer Drug Des. 1990, 5, 249. McConnaughie, A. W.; Jenkins, T. C. J. Med. Chem. 1995, 38, 3488). The studies for these compounds (VIIa-c) were carried out by DNA/ligand molar ratios of 5:1. The increase in the helix melting temperature. (ΔTm) for each compound was examined after 0, 18 and 36 h incubation at 37° C.

Compound	ΔTm (° C.) after incubation at 37° C. for 0 h [°C]	ΔTm (° C.) after incubation at 37° C. for 18 h [°C]	ΔTm (° C.) after incubation at 37° C. for 36 h [°C]	ΔTm (increase in the helix melting temperature) (under identical experimental conditions, DNA/ligand molar ratio 5:1, incubation time not stated) [°C]
1,1′-{[(butane-1,4-diyl)]dioxy}bis[(11aS)-2,2-difluoro-7-methoxy-1,2,3,11a-tetrahydro-5H-pyrrolo[2,1-c][1,4]benzodiazepin-5-one [VIIb]	4.2	23.4	24.7	–
1,1′-{[(pentane-1,5-diyl)]dioxy}bis[(11aS)-2,2-difluoro-7-methoxy-1,2,3,11a-tetrahydro-5H-pyrrolo[2,1-c][1,4]benzodiazepin-5-one [VIIc]	18.9	24.5	28.4	–
COc1cc2c(cc1O)N=CC1CCCN1C2=O (stereo not shown) [DC-81, reference compound]	0.3	0.7	0.7	0.7
COc1ccc2c(c1)C(=O)N1CC(F)(F)C(OCCCOC3[C@@H]4C=Nc5ccc(OC)cc5C(=O)N4CC3(F)F)[C@@H]1C=N2 (stereo partly drawn) [VIIa, 1,1′-{[(propane-1,3-diyl)]dioxy}bis[(11aS)-2,2-difluoro-7-methoxy-1,2,3,11a-tetrahydro-5H-pyrrolo[2,1-c][1,4]benzodiazepin-5-one]]	13.1	23.4	27.5	–
